Where a name gives a salt, the structure may show the parent alone.

For this experiment, the target named is indoleamine 2,3-dioxygenase (IDO1) (Homo sapiens, UniProt P14902). The experiment in a line: HeLa IDOi assay (kynurenine by mass spectrometry). In kind it is cell-based. Also on record: human epithelial HeLa cells (CCL-2; host or cells: HeLa cells stimulated with human IFN-γ. Particulars: IFN-γ stimulated HeLa cells, 2 days, kynurenine detected by mass spectrometry; read-out: HeLa pIC50 (converted). On the procedure:
Brief descriptions of the cellular assays are provided following the table.
Compounds of the present invention were tested via high-throughput cellular assays utilizing detection of kynurenine via mass spectrometry and cytotoxicity as end-points. For the mass spectrometry and cytotoxicity assays, human epithelial HeLa cells (CCL-2; ATCC®, Manassas, Va.) were stimulated with human interferon-γ (IFN-γ) (Sigma-Aldrich Corporation, St. Louis, Mo.) to induce the expression of indoleamine 2,3-dioxygenase (IDO1). Compounds with IDO1 inhibitory properties decreased the amount of kynurenine produced by the cells via the tryptophan catabolic pathway. Cellular toxicity due to the effect of compound treatment was measured using CellTiter-Glo® reagent (CTG) (Promega Corporation, Madison, Wis.), which is based on luminescent detection of ATP, an indicator of metabolically active cells.
In preparation for the assays, test compounds were serially diluted 3-fold in DMSO from a typical top concentration of 5 mM and plated at 0.5 μL in 384-well, polystyrene, clear bottom, tissue culture treated plates with lids (Greiner Bio-One, Kremsmünster, Austria) to generate 11-point dose response curves. Low control wells (0% kynurenine or 100% cytotoxicity) contained either 0.5 μL of DMSO in the presence of unstimulated (−IFN-γ) HeLa cells for the mass spectrometry assay or 0.5 μL of DMSO in the absence of cells for the cytotoxicity assay, and high control wells (100% kynurenine or 0% cytotoxicity) contained 0.5 μL of DMSO in the presence of stimulated (+IFN-γ) HeLa cells for both the mass spectrometry and cytotoxicity assays.
Frozen stocks of HeLa cells were washed and recovered in DMEM high glucose medium with HEPES (Thermo Fisher Scientific, Inc., Waltham, Mass.) supplemented with 10% v/v certified fetal bovine serum (FBS) (Thermo Fisher Scientific, Inc., Waltham, Mass.), and 1× penicillin-streptomycin antibiotic solution (Thermo Fisher Scientific, Inc., Waltham, Mass.). The cells were diluted to 100,000 cells/mL in the supplemented DMEM medium. 50 μL of either the cell suspension, for the mass spectrometry assay, or medium alone, for the cytotoxicity assay, were added to the low control wells, on the previously prepared 384-well compound plates, resulting in 5,000 cells/well or 0 cells/well respectively. IFN-γ was added to the remaining cell suspension at a final concentration of 10 nM, and 50 μL of the stimulated cells were added to all remaining wells on the 384-well compound plates. The plates, with lids, were then placed in a 37° C., 5% CO2 humidified incubator for 2 days.
Following incubation, the 384-well plates were removed from the incubator and allowed to equilibrate to room temperature for 30 minutes. For the cytotoxicity assay, CellTiter-Glo® was prepared according to the manufacturer's instructions, and 10 μL were added to each plate well. After a twenty minute incubation at room temperature, luminescence was read on an EnVision® Multilabel Reader (PerkinElmer Inc., Waltham, Mass.). For the mass spectrometry assay, 10 μL of supernatant from each well of the compound-treated plates were added to 40 μL of acetonitrile, containing 10 μM of an internal standard for normalization, in 384-well, polypropylene, V-bottom plates (Greiner Bio-One, Kremsmünster, Austria) to extract the organic analytes. Following centrifugation at 2000 rpm for 10 minutes, 10 μL from each well of the acetonitrile extraction plates were added to 90 μL of sterile, distilled H2O in 384-well, polypropylene, V-bottom plates for analysis of kynurenine and the internal standard on the RapidFire 300 (Agilent Technologies, Santa Clara, Calif.) and 4000 QTRAP MS (SCIEX, Framingham, Mass.). MS data were integrated using Agilent Technologies' RapidFire Integrator software, and data were normalized for analysis as a ratio of kynurenine to the internal standard. […]

Chain of indoleamine 2,3-dioxygenase (IDO1) (P14902 whole entry): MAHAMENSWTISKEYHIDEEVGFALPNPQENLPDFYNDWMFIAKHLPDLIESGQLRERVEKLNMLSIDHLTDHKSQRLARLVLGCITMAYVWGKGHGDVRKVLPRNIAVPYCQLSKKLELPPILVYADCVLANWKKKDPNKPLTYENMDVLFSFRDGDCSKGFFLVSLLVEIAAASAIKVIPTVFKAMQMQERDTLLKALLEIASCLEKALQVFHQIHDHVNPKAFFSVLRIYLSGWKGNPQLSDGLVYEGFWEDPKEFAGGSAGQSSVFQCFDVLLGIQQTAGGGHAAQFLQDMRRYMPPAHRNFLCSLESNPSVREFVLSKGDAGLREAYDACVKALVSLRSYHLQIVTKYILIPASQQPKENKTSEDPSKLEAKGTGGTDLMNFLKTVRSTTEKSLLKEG

Turning to `CC(C)(C)Sc1ccc(-c2ccccc2-c2nn[nH]n2)cc1NC(=O)Cc1cnccn1` [Example 5, N-(4-(tert-butylthio)-2′-(2H-tetrazol-5-yl)-[1,1′-biphenyl]-3-yl)-2-(pyrazin-2-yl)acetamide], the IC50 was over 10000 nM.

Turning to `CC(C)(C)Sc1ccc(-c2ccccc2-c2nn[nH]n2)cc1NC(=O)Cc1ccncc1` [Example 6, N-(4-(tert-butylthio)-2′-(2H-tetrazol-5-yl)-[1,1′-biphenyl]-3-yl)-2-(pyridin-4-yl)acetamide], the IC50 was 6310 nM.

Consider `CC(C)(C)Sc1ccc(-c2ccccc2-c2nn[nH]n2)cc1NC(=O)Cc1ccc(C#N)cc1` [Example 7, N-(4-(tert-butylthio)-2′-(2H-tetrazol-5-yl)-[1,1′-biphenyl]-3-yl)-2-(4-cyanophenyl)acetamide], for which the IC50 is 5010 nM.

On to `Cc1cc(CC(=O)Nc2cc(-c3ccccc3-c3nn[nH]n3)ccc2SC(C)(C)C)on1` [Example 8, N-(4-(tert-butylthio)-2′-(2H-tetrazol-5-yl)-[1,1′-biphenyl]-3-yl)-2-(3-methylisoxazol-5-yl)acetamide], for which the IC50 is 6310 nM.

Take `CC(C)(C)Sc1ccc(-c2ccccc2-c2nn[nH]n2)cc1NC(=O)Cc1cncnc1` [Example 9, N-(4-(tert-butylthio)-2′-(2H-tetrazol-5-yl)-[1,1′-biphenyl]-3-yl)-2-(pyrimidin-5-yl)acetamide]: the IC50 is over 10000 nM.

For the molecule `COCCCSc1ccc(-c2ccccc2-c2nn[nH]n2)cc1NC(=O)Cc1ccc(C)cc1` [Example 11, N-(4-((3-methoxypropyl)thio)-2′-(2H-tetrazol-5-yl)-[1,1′-biphenyl]-3-yl)-2-(p-tolyl)acetamide], the IC50 was 1000 nM.

On to `Cc1ccc(CC(=O)Nc2cc(-c3ccccc3-c3nn[nH]n3)ccc2SC2CCOCC2)cc1` [Example 12, N-(4-((tetrahydro-2H-pyran-4-yl)thio)-2′-(2H-tetrazol-5-yl)-[1,1′-biphenyl]-3-yl)-2-(p-tolyl)acetamide], for which the IC50 is 5010 nM.

With `CC(C)(C)Sc1ccc(-c2ccccc2-c2nn[nH]n2)cc1NC(=O)CC1CC1` [Example 17, N-(4-(tert-butylthio)-2′-(2H-tetrazol-5-yl)-[1,1′-biphenyl]-3-yl)-2-cyclopropylacetamide], the IC50 is 2510 nM.

Regarding `CC(C)(C)Sc1ccc(-c2ccccc2-c2nn[nH]n2)cc1NC(=O)CC1CCCCC1` [Example 18, N-(4-(tert-butylthio)-2′-(2H-tetrazol-5-yl)-[1,1′-biphenyl]-3-yl)-2-cyclohexylacetamide], the IC50 was 3980 nM.

`Cc1ccc(CC(=O)Nc2cc(-c3ccccc3-c3nn[nH]n3)ccc2SC(C)(C)C)cc1F` [Example 21, N-(4-(tert-butylthio)-2′-(2H-tetrazol-5-yl)-[1,1′-biphenyl]-3-yl)-2-(3-fluoro-4-methylphenyl)acetamide]: the IC50 was 20 nM.

For `COc1ccc(CC(=O)Nc2cc(-c3ccccc3-c3nn[nH]n3)ccc2SC(C)(C)C)cc1` [Example 22, N-(4-(tert-butylthio)-2′-(2H-tetrazol-5-yl)-[1,1′-biphenyl]-3-yl)-2-(4-methoxyphenyl)acetamide], the IC50 was 31.6 nM.

As to `COc1ccc(CC(=O)Nc2cc(-c3ccccc3-c3nn[nH]n3)ccc2SC(C)(C)C)cc1F` [Example 23, N-(4-(tert-butylthio)-2′-(2H-tetrazol-5-yl)-[1,1′-biphenyl]-3-yl)-2-(3-fluoro-4-methoxyphenyl)acetamide], the IC50 was 63.1 nM.

`CC(C)(C)Sc1ccc(-c2ccccc2-c2nn[nH]n2)cc1NC(=O)Cc1ccc(F)cc1` [Example 24, N-(4-(tert-butylthio)-2′-(2H-tetrazol-5-yl)-[1,1′-biphenyl]-3-yl)-2-(4-fluorophenyl)acetamide]: the IC50 is 398 nM.

For `CC(C)(C)Sc1ccc(-c2ccccc2-c2nn[nH]n2)cc1NC(=O)Cc1ccccc1` [Example 25, N-(4-(tert-butylthio)-2′-(2H-tetrazol-5-yl)-[1,1′-biphenyl]-3-yl)-2-phenylacetamide], the IC50 was 398 nM.

As to `Cc1ccc(CC(=O)Nc2cc(-c3ccccc3-c3nn[nH]n3)ccc2SC(C)(C)C)nc1` [Example 26, N-(4-(tert-butylthio)-2′-(2H-tetrazol-5-yl)-[1,1′-biphenyl]-3-yl)-2-(5-methylpyridin-2-yl)acetamide], the IC50 was 794 nM.

Consider `CC(C)(C)OC(=O)N1CCC(CC(=O)Nc2cc(-c3ccccc3-c3nn[nH]n3)ccc2SC(C)(C)C)CC1` [Example 29], for which the IC50 is 5010 nM.

For the molecule `CC(C)(C)Sc1ccc(-c2ccccc2-c2nn[nH]n2)cc1NC(=O)CC1CCNCC1` [Example 30, N-(4-(tert-butylthio)-2′-(2H-tetrazol-5-yl)-[1,1′-biphenyl]-3-yl)-2-(piperidin-4-yl)acetamide Hydrochloride], the IC50 is over 10000 nM.

On to `CC(=O)N1CCC(CC(=O)Nc2cc(-c3ccccc3-c3nn[nH]n3)ccc2SC(C)(C)C)CC1` [Example 31, 2-(1-Acetylpiperidin-4-yl)-N-(4-(tert-butylthio)-2′-(2H-tetrazol-5-yl)-[1,1′-biphenyl]-3-yl)acetamide], for which the IC50 is over 10000 nM.

As to `CC(C)(C)Sc1ccc(-c2ccccc2-c2nn[nH]n2)cc1NC(=O)CC1CCN(S(C)(=O)=O)CC1` [Example 32, N-(4-(tert-butylthio)-2′-(2H-tetrazol-5-yl)-[1,1′-biphenyl]-3-yl)-2-(1-(methylsulfonyl)piperidin-4-yl)acetamide], the IC50 is over 10000 nM.

`COCC(=O)Nc1cc(-c2ccccc2-c2nn[nH]n2)ccc1SC(C)(C)C` [Example 33, N-(4-(tert-butylthio)-2′-(2H-tetrazol-5-yl)-[1,1′-biphenyl]-3-yl)-2-methoxyacetamide]: the IC50 is 7940 nM.

In the case of `CC(C)(C)Sc1ccc(-c2ccccc2-c2nn[nH]n2)cc1NC(=O)Cc1ccc2c(c1)OCO2` [Example 38, 2-(Benzo[d][1,3]dioxol-5-yl)-N-(4-(tert-butylthio)-2′-(2H-tetrazol-5-yl)-[1,1′-biphenyl]-3-yl)acetamide], the IC50 was 100 nM.

Regarding `CC(C)(C)Sc1ccc(-c2ccccc2-c2nn[nH]n2)cc1Nc1nc(Cl)ns1` [Example 42, N-(4-(tert-butylthio)-2′-(2H-tetrazol-5-yl)-[1,1′-biphenyl]-3-yl)-3-chloro-1,2,4-thiadiazol-5-amine], the IC50 is 126 nM.

As for `CC(CC(=O)O)c1ccc(SC(C)(C)C)c(Nc2nc(Cl)ns2)c1` (centres unmarked) [Example 45, 3-(4-(tert-Butylthio)-3-((3-chloro-1,2,4-thiadiazol-5-yl)amino)phenyl)butanoic Acid], the IC50 is 2510 nM.

Take `Cc1ccc(CC(=O)Nc2cc(-c3ccccc3-c3nnn(COP(=O)(OC(C)(C)C)OC(C)(C)C)n3)ccc2SC(C)(C)C)cc1` [Example 49, di-tert-butyl ((5-(4′-(tert-butylthio)-3′-(2-(p-tolyl)acetamido)-[1,1′-biphenyl]-2-yl)-2H-tetrazol-2-yl)methyl) phosphate]: the IC50 is 1000 nM.

Regarding `Cc1ccc(CC(=O)Nc2cc(-c3ccccc3-c3nnnn3COP(=O)(OC(C)(C)C)OC(C)(C)C)ccc2SC(C)(C)C)cc1` [Example 50, di-tert-butyl ((5-(4′-(tert-butylthio)-3′-(2-(p-tolyl)acetamido)-[1,1′-biphenyl]-2-yl)-1H-tetrazol-1-yl)methyl) phosphate], the IC50 is 126 nM.

With `CC(=O)OCn1nnc(-c2ccccc2-c2ccc(SC(C)(C)C)c(NC(=O)Cc3ccc(C)cc3)c2)n1` [Example 57, (5-(4′-(tert-Butylthio)-3′-(2-(p-tolyl)acetamido)-[1,1′-biphenyl]-2-yl)-2H-tetrazol-2-yl)methyl Acetate], the IC50 is 25.1 nM.

(Values after patent US10538495B2, “Modulators of indoleamine 2,3-dioxygenase” (GLAXOSMITHKLINE INTELLECTUAL PROPERTY DEVELOPMENT LIMITED, priority 2016, dated 2020).)
